# Experimental data from patent publication US20240262831A1, “COMPOUNDS AND USE THEREOF FOR TREATMENT OF NEURODEGENERATIVE, DEGENERATIVE AND METABOLIC DISORDERS” (VOVA IDA THERAPEUTICS, INC., priority 2020, published 2024).
# System: PK1 neuroblastoma cells exposed to TPrP
# Assay: cells
# Details: Neuroblastoma cell, 96 h, read-out: TPrP EC50
row,Compound,EC50 [nM]
1,O=C(NCCCn1ccnc1)c1cnn2c(C(F)(F)F)cc(-c3ccccc3)nc12 [SR-229],2
2,Cc1nccn1CCCNC(=O)c1cnn2c(=O)cc(-c3ccc4c(c3)OCO4)[nH]c12 [SR-31105],800
3,CCOc1ccc(-c2cc(=O)n3ncc(C(=O)NCCCn4ccnc4C)c3[nH]2)cc1 [SR-32684],900
4,CCOc1ccc(-c2cc(=S)n3ncc(C(=O)NCCCn4ccnc4C)c3[nH]2)cc1 [SR-32685],40
5,CCOc1ccc(-c2cc(=O)n3ncc(C(=O)NCCCn4ccnc4C)c3n2C)cc1 [SR-32686],> 2700
6,CCOc1ccc(-c2cc(N3CC[C@@H](NC(C)=O)C3)n3ncc(C(=O)NCCCn4ccnc4C)c3n2)cc1 [SR-32687],< 5
7,CCOc1ccc(-c2cc(N3CC[C@H](NC(C)=O)C3)n3ncc(C(=O)NCCCn4ccnc4C)c3n2)cc1 [SR-32688],< 5
8,CCOc1ccc(-c2cc(Cl)n3ncc(C(=O)NCCCn4ccnc4C)c3n2)cc1 [SR-32689],20
9,Cc1cc(-c2ccc3c(c2)OCO3)nc2c(C(=O)NCCCn3ccnc3C)csc12 [SR-33781],< 5
10,CCSc1ccc(-c2cc(=S)n3ncc(C(=O)NCCCn4ccnc4C)c3[nH]2)cc1 [SR-34831],20
11,CCOc1ccc(-c2cc(=S)c3scc(C(=O)NCCCn4ccnc4C)c3[nH]2)cc1 [SR-34953],6
12,CCOc1ccc(-c2cc(=O)c3cccc(C(=O)NCCCn4ccnc4C)c3o2)cc1 [SR-35434],18
13,CCOc1ccc(-c2cc(=S)c3cccc(C(=O)NCCCn4ccnc4C)c3o2)cc1 [SR-35435],54

# System: not listed separately
# Assay: Microsomal stability assay, human hepatic microsomes
# Assay type: in vitro ADME
# Details: 1 mg/ml human hepatic microsomes, 37° C., half-life by LC-MS/MS
# Method: The metabolic stability of some test compounds was determined in hepatic human and mouse microsomes. The compound was incubated with 1 mg/ml human or mouse hepatic microsomes at 37° C. with continuous shaking. Aliquots were removed at various time points between 5 minutes and 2 hours and acetonitrile was added to quench the reactions and precipitate the proteins. Samples were then centrifuged through 0.45 μm filter plates and half-lives were determined by LC-MS/MS.
row,Compound,Stability in human microsomes ≥15 minutes
1,CCOc1ccc(-c2ccn3ccc(C(=O)NCCCn4ccnc4C)c3n2)cc1 [SR-35784],Yes

# System: not listed separately
# Assay: in vitro
# Details: mouse, tox (toxicity noted in TPrP EC50 column)
row,Compound,EC50 [nM]
1,CCOc1ccc(-c2cc(Cl)n3ncc(C(=O)NCCCn4ccnc4C)c3n2)cc1 [SR-32689],> 900
